{"source": "ChEMBL document CHEMBL5212743", "about": "“Selectivity Literature for EUbOPEN Chemogenomics Library wave 3” (2023)", "key": {"[1]": {"system": "Receptor-type tyrosine-protein kinase FLT3 (Homo sapiens), P36888 [UNDEFINED MUTATION]", "assay": "Selectivity interaction (KinomeScan (DiscoverX)) EUB0000315b FLT3", "details": "at 1 µM"}, "[2]": {"target": "MAP/microtubule affinity-regulating kinase 3 (Homo sapiens) (UniProt P27448)", "assay": "Selectivity interaction (KinomeScan (DiscoverX)) EUB0000315b MARK3", "details": "at 1 µM"}, "[3]": {"target": "SRSF protein kinase 2 (Homo sapiens) (UniProt P78362)", "sequence (P78362 whole entry, looked up)": "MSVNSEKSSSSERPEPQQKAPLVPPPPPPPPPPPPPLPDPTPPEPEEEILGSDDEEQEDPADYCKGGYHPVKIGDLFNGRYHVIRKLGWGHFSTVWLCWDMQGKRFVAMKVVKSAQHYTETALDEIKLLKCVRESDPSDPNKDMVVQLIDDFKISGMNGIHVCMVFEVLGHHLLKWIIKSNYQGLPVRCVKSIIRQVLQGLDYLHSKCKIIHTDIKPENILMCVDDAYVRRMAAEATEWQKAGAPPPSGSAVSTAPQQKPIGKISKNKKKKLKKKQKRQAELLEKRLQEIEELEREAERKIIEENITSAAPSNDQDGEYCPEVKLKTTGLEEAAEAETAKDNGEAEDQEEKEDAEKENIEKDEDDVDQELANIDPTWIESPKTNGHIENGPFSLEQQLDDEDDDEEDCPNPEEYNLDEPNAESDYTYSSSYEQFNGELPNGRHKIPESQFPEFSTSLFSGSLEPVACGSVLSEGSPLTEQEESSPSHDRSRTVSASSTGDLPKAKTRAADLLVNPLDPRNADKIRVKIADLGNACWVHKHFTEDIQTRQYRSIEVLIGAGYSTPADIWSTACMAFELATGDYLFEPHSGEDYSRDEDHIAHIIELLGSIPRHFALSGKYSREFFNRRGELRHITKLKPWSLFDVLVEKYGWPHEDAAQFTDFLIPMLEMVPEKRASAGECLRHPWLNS", "assay": "Selectivity interaction (KinomeScan (DiscoverX)) EUB0000315b SRPK2", "details": "at 1 µM"}, "[4]": {"target": "Serine/threonine-protein kinase 38-like (Homo sapiens, UniProt Q9Y2H1)", "assay": "Selectivity interaction (KinomeScan (DiscoverX)) EUB0000317b STK38L", "details": "at 1 µM"}, "[5]": {"target": "5-hydroxytryptamine receptor 7 (Homo sapiens, UniProt P34969)", "assay": "Selectivity interaction (GPCR panel (PDSP screen)) EUB0000317b HTR7", "details": "at 10 µM"}, "[6]": {"target": "Phosphatidylinositol 4,5-bisphosphate 3-kinase catalytic subunit beta isoform (Homo sapiens) (UniProt P42338)", "sequence (P42338 whole entry, looked up, canonical isoform)": "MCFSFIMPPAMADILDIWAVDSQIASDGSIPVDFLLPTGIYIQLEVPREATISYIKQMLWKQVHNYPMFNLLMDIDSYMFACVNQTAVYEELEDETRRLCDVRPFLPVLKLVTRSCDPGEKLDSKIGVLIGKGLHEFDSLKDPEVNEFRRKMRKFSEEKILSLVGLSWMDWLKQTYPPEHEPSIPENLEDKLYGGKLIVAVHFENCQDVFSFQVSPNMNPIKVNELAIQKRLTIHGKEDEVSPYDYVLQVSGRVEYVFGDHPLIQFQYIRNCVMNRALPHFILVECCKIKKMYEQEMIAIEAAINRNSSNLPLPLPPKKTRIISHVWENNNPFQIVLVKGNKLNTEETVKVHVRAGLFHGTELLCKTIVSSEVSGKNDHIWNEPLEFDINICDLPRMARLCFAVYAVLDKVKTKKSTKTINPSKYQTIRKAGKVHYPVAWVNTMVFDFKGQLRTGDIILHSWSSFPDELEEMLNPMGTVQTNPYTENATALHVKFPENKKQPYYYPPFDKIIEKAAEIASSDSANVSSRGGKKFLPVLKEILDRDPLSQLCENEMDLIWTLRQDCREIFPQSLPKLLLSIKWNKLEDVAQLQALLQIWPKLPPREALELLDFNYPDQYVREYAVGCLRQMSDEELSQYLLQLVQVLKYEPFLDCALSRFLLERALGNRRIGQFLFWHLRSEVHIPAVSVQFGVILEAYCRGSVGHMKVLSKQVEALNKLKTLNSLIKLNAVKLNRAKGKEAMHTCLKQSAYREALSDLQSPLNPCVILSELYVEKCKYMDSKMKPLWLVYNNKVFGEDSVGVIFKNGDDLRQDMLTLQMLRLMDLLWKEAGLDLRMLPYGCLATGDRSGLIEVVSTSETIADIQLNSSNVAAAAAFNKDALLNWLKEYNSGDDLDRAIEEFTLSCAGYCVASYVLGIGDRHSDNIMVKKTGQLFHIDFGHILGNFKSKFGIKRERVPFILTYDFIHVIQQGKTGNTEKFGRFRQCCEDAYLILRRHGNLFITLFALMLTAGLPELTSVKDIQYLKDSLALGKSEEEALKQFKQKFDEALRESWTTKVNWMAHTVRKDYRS", "assay": "Selectivity interaction (KinomeScan (DiscoverX)) EUB0000014b PIK3CB", "details": "at 1 µM"}, "[7]": {"target": "5-hydroxytryptamine receptor 2B (Homo sapiens, UniProt P41595)", "assay": "Selectivity interaction (GPCR panel (PDSP screen)) EUB0000336a HTR2B", "details": "at 1 µM"}, "[8]": {"target": "T1, Phosphatidylinositol 5-phosphate 4-kinase type-2 gamma (Homo sapiens) (UniProt Q8TBX8)", "T1 sequence (whole entry)": "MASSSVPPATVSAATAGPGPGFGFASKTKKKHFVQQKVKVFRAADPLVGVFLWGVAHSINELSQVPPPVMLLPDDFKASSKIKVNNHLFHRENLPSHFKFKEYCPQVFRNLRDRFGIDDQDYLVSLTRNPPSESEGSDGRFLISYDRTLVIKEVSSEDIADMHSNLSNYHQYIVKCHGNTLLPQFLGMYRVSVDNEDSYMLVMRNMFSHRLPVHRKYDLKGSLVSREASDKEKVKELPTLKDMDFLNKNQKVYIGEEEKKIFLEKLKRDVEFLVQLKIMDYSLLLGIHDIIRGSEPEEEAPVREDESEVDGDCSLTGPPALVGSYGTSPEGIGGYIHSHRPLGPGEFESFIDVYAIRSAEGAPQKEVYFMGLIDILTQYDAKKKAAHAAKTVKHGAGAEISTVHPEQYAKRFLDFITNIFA", "assay": "Selectivity interaction (KinomeScan (DiscoverX)) EUB0000336a PIP4K2C", "details": "at 1 µM"}, "[9]": {"target": "Phosphatidylinositol 4,5-bisphosphate 3-kinase catalytic subunit alpha isoform (Homo sapiens, UniProt P42336)", "assay": "Selectivity interaction (KinomeScan (DiscoverX)) EUB0000336a PIK3CA", "details": "at 1 µM"}, "[10]": {"target": "Epidermal growth factor receptor (Homo sapiens, UniProt P00533)", "assay": "Selectivity interaction (KinomeScan (DiscoverX)) EUB0000336a EGFR", "details": "at 1 µM"}, "[11]": {"target": "Serine/threonine-protein kinase Nek5 (Homo sapiens) (UniProt Q6P3R8)", "sequence (Q6P3R8 whole entry)": "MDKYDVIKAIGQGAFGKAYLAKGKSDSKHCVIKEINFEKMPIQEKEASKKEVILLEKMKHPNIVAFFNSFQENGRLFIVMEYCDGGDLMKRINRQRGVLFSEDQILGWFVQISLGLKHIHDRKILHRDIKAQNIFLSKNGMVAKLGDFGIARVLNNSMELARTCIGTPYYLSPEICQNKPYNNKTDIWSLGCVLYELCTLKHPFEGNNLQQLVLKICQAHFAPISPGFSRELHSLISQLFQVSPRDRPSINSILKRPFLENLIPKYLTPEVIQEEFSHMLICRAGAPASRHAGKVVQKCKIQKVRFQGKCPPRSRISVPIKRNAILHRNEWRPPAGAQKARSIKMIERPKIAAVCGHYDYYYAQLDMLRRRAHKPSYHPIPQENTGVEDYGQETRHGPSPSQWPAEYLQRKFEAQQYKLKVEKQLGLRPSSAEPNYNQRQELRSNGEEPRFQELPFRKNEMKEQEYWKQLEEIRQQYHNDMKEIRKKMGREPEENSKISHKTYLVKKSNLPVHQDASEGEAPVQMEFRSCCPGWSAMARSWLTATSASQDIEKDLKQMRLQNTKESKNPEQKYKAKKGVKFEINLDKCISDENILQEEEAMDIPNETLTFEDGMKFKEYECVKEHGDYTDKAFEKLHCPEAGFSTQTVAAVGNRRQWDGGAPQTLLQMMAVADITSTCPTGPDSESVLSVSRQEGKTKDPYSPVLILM", "assay": "Selectivity interaction (KinomeScan (DiscoverX)) EUB0000336a NEK5", "details": "at 1 µM"}, "[12]": {"target": "Tyrosine-protein kinase receptor Tie-1 (Homo sapiens) (UniProt P35590)", "sequence (P35590 whole entry)": "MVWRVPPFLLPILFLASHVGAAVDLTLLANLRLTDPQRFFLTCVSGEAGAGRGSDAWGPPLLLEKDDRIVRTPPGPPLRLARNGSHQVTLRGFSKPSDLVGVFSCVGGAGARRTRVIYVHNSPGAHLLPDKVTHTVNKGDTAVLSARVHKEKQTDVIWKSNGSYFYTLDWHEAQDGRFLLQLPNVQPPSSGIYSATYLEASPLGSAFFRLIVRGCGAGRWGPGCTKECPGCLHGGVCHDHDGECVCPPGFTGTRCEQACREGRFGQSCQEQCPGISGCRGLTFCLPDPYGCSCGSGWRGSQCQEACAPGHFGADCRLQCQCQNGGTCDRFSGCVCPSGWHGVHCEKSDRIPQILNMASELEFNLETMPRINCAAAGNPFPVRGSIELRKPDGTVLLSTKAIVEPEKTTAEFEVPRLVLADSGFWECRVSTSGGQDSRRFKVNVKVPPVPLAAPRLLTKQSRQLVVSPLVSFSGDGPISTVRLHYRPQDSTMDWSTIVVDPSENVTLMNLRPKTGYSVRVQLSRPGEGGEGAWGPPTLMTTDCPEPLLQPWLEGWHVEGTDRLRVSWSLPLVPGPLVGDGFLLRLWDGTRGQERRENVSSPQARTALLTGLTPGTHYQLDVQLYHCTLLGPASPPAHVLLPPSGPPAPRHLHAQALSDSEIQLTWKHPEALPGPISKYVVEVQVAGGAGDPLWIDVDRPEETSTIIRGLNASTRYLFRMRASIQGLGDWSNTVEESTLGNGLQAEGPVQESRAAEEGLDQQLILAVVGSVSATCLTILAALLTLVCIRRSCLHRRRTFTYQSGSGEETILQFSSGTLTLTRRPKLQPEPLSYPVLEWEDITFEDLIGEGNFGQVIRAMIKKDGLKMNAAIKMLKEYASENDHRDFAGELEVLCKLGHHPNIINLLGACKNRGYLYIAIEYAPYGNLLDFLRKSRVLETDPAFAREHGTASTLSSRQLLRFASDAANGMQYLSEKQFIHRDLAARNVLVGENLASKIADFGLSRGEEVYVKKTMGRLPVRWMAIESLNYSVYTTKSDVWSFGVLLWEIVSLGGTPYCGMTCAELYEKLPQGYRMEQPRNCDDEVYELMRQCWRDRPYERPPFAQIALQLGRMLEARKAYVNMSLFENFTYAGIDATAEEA", "assay": "Selectivity interaction (KinomeScan (DiscoverX)) EUB0000336a TIE1", "details": "at 1 µM"}, "[13]": {"target": "Receptor-type tyrosine-protein kinase FLT3 (Homo sapiens) (UniProt P36888)", "assay": "Selectivity interaction (Kinase panel) EUB0000214b FLT3", "details": "at […]"}, "[14]": {"target": "Serine/threonine-protein kinase DCLK2 (Homo sapiens) (UniProt Q8N568)", "assay": "Selectivity interaction (KinomeScan (Ambit)) EUB0000687a DCLK2", "details": "at 10 µM"}, "[15]": {"target": "Serine/threonine-protein kinase PLK4 (Homo sapiens) (UniProt O00444)", "assay": "Selectivity interaction (KinomeScan (Ambit)) EUB0000687a PLK4", "details": "at 10 µM"}, "[16]": {"target": "Casein kinase I isoform epsilon (Homo sapiens, UniProt P49674)", "sequence (P49674 whole entry, looked up, canonical isoform)": "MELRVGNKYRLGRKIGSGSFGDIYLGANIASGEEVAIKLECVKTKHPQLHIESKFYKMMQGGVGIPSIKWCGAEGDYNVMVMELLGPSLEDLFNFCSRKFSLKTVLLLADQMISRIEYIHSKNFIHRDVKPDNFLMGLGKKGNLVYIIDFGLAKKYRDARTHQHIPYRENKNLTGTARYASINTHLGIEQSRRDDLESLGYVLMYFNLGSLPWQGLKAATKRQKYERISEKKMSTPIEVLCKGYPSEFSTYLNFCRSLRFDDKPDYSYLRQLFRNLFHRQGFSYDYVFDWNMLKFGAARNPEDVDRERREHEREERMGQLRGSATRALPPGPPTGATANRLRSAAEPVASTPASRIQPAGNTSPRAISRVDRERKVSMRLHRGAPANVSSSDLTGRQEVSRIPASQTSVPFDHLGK", "assay": "Selectivity interaction (Radioisotope filter binding assay (Reaction Biology)) EUB0000696a CSNK1E", "details": "at 1 µM"}, "[17]": {"target": "Substance-K receptor (Homo sapiens) (UniProt P21452)", "assay": "Selectivity interaction (CEREP panel (ligand receptors, ion channels, transporters)) EUB0000330a TACR2", "details": "at 1 µM"}, "CREB-binding protein": {"target": "CREB-binding protein (Homo sapiens, UniProt Q92793)", "assay": "Selectivity interaction (Bromodomain panel (DSF assay)) EUB0000330a CREBBP"}, "[18]": {"target": "cGMP-inhibited 3',5'-cyclic phosphodiesterase 3A (Homo sapiens, UniProt Q14432)", "assay": "Selectivity interaction (Eurofins CEREP Diversity Profiling (71 receptors, ion channels, and 25 other enzymes)) EUB0000231c PDE3A", "details": "at 10 µM"}, "[19]": {"target": "T2, Adenosine receptor A1 (Homo sapiens) (UniProt P30542)", "T2 sequence (whole entry)": "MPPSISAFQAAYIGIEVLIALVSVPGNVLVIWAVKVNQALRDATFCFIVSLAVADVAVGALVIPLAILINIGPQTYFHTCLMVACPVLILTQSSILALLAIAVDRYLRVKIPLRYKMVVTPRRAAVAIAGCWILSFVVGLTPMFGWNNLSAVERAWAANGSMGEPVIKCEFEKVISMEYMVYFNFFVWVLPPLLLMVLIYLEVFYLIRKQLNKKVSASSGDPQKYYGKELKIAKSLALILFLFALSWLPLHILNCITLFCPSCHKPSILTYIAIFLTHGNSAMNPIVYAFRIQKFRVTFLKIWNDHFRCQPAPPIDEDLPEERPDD", "assay": "Selectivity interaction (Eurofins CEREP Diversity Profiling (71 receptors, ion channels, and 25 other enzymes)) EUB0000231c ADORA1", "details": "at 10 µM"}, "[20]": {"target": "cGMP-dependent 3',5'-cyclic phosphodiesterase (Homo sapiens) (UniProt O00408)", "assay": "Selectivity interaction (Eurofins CEREP Diversity Profiling (71 receptors, ion channels, and 25 other enzymes)) EUB0000231c PDE2A", "details": "at 10 µM"}, "[21]": {"target": "3',5'-cyclic-AMP phosphodiesterase 4D (Homo sapiens) (UniProt Q08499)", "sequence (Q08499 whole entry)": "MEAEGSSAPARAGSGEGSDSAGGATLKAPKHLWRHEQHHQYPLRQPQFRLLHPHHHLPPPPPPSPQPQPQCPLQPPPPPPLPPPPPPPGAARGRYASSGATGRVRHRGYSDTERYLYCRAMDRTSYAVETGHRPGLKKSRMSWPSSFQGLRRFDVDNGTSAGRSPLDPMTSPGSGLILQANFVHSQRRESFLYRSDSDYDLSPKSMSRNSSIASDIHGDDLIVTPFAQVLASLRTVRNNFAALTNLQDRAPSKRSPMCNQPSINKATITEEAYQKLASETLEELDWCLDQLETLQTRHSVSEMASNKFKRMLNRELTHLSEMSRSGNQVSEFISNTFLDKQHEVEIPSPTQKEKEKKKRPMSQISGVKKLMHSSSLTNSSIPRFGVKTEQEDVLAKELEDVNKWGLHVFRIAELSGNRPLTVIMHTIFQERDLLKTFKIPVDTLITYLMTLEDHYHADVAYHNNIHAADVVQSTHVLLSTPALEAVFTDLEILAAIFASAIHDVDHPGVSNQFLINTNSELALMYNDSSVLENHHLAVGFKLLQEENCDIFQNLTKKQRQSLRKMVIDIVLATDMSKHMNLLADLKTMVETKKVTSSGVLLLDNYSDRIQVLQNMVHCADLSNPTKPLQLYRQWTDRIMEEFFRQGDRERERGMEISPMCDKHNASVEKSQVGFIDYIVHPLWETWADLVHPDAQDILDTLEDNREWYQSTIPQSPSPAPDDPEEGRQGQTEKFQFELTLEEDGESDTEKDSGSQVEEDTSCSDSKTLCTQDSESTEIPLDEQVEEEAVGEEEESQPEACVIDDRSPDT", "assay": "Selectivity interaction (Eurofins CEREP Diversity Profiling (71 receptors, ion channels, and 25 other enzymes)) EUB0000231c PDE4D", "details": "at 10 µM"}, "[22]": {"target": "T3, Gamma-aminobutyric acid receptor subunit alpha-1 (Homo sapiens) (UniProt P14867)", "T3 sequence (whole entry)": "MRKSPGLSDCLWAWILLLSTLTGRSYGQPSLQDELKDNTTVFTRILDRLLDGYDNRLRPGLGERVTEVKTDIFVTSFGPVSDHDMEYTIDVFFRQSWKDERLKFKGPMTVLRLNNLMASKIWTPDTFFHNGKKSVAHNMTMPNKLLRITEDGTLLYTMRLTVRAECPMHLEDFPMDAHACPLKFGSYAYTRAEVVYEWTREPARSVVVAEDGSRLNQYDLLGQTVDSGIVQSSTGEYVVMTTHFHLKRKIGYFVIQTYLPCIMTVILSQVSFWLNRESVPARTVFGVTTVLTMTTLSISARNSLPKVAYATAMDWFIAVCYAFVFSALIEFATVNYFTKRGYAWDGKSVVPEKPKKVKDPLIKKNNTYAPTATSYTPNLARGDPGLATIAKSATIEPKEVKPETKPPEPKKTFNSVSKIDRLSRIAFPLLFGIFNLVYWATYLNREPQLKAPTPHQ", "assay": "Selectivity interaction (Eurofins CEREP Diversity Profiling (71 receptors, ion channels, and 25 other enzymes)) EUB0000231c GABRA1", "details": "at 10 µM"}, "[23]": {"target": "T4, Mitogen-activated protein kinase 15 (Homo sapiens) (UniProt Q8TD08)", "T4 sequence (whole entry)": "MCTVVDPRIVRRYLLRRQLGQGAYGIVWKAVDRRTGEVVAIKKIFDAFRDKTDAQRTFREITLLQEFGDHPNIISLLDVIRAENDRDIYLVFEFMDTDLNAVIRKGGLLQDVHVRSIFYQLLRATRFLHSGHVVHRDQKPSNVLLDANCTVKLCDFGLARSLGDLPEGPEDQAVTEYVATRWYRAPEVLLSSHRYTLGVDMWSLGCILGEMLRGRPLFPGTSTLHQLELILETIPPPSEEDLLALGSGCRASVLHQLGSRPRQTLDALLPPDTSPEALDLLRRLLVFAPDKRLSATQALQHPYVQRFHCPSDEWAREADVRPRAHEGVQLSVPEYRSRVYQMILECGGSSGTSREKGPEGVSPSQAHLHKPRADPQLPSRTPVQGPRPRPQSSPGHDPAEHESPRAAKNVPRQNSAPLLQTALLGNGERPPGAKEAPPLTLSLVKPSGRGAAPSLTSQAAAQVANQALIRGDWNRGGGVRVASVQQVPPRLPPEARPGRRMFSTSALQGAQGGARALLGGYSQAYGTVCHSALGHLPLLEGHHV", "assay": "Selectivity interaction (Dundee panel (140 kinases and 19 lipid kinases)) EUB0000631a MAPK15", "details": "at 1 µM"}, "[24]": {"target": "Serine/threonine-protein kinase 17A (Homo sapiens) (UniProt Q9UEE5)", "assay": "Selectivity interaction (Kinase panel (ProQinase)) EUB0000631a STK17A", "details": "at 1 µM"}, "[25]": {"target": "Mitogen-activated protein kinase kinase kinase 7 (Homo sapiens) (UniProt O43318)", "assay": "Selectivity interaction (Dundee panel (140 kinases and 19 lipid kinases)) EUB0000631a MAP3K7", "details": "at 1 µM"}}, "data": [{"smiles": "Cn1nc(C(F)(F)F)cc1-c1cnc(N2CCc3cc(S(=O)(=O)Nc4c(F)cc(Cl)cc4F)cc(N4CCCC4=O)c32)nc1", "values": [{"measurement": "% of control", "setting": "[1]", "value": 32, "unit": "%"}, {"measurement": "% of control", "setting": "[2]", "value": 12, "unit": "%"}, {"measurement": "% of control", "setting": "[3]", "value": 34, "unit": "%"}]}, {"smiles": "Cc1cc(-n2nc(Cc3cc(F)cc(C(F)(F)F)c3)nc2C)ccc1C(N)=O", "values": [{"measurement": "% of control", "setting": "[4]", "value": 49, "unit": "%"}, {"measurement": "inhibition", "setting": "[5]", "value": 21, "unit": "%"}]}, {"smiles": "Nc1ccc(C(=O)Nc2cccc(-c3nc(N4CCOCC4)c4oc5ncccc5c4n3)c2)cn1", "values": [{"measurement": "% of control", "setting": "[6]", "value": 9.8, "unit": "%"}]}, {"smiles": "Cc1nc(Cc2cccc(C(F)(F)F)c2)sc1-c1ccc(C(N)=O)nc1", "values": [{"measurement": "% of inhibition", "setting": "[7]", "value": 34, "unit": "%"}, {"measurement": "% of control", "setting": "[8]", "value": 0.3, "unit": "%"}, {"measurement": "% of control", "setting": "[9]", "value": 15, "unit": "%"}, {"measurement": "% of control", "setting": "[10]", "value": 0, "unit": "%"}, {"measurement": "% of control", "setting": "[11]", "value": 35, "unit": "%"}, {"measurement": "% of control", "setting": "[12]", "value": 28, "unit": "%"}]}, {"smiles": "O=C(c1ccc(C(=O)N2CCC(N3CCCC3)CC2)c(Nc2ccccc2)c1)N1CCC(N2CCCC2)CC1", "values": [{"measurement": "% of control", "setting": "[13]", "value": 64, "unit": "%"}]}, {"smiles": "CCOc1cc(C(=O)N2CCC(N3CCN(C)CC3)CC2)ccc1Nc1ncc2c(n1)N(C1CCCC1)c1ccccc1C(=O)N2C", "values": [{"measurement": "% of control", "setting": "[14]", "value": 3.6, "unit": "%"}, {"measurement": "% of control", "setting": "[15]", "value": 5.1, "unit": "%"}]}, {"smiles": "CC(C)Oc1ccc(-c2nn([C@@H](C)c3oc4ccc(F)cc4c(=O)c3-c3cccc(F)c3)c3ncnc(N)c23)cc1F", "values": [{"measurement": "% of control", "setting": "[16]", "value": 39, "unit": "%"}]}, {"smiles": "Cc1sc2c(c1C)C(c1ccc(Cl)cc1)=N[C@@H](CC(=O)OC(C)(C)C)c1nnc(C)n1-2", "values": [{"measurement": "% bound fraction", "setting": "[17]", "value": 48, "unit": "%"}, {"measurement": "dTm", "setting": "CREB-binding protein", "value": 1.04, "unit": "K"}]}, {"smiles": "CC(=O)c1cc(-c2cc(C(=O)NC3CC3)ccc2C)c2ncccn12", "values": [{"measurement": "% of control", "setting": "[18]", "value": 48, "unit": "%"}, {"measurement": "% of control", "setting": "[19]", "value": 14, "unit": "%"}, {"measurement": "% of control", "setting": "[20]", "value": 25, "unit": "%"}, {"measurement": "% of control", "setting": "[21]", "value": 28, "unit": "%"}, {"measurement": "% of control", "setting": "[22]", "value": 47, "unit": "%"}]}, {"smiles": "CC(C)(O)CNc1ncc(-c2ccnc(Nc3ccnc(Cl)c3)n2)c(CC2CC2)n1", "values": [{"measurement": "% of activity remaining", "setting": "[23]", "value": 32, "unit": "%"}, {"measurement": "% of activity remaining", "setting": "[24]", "value": 45, "unit": "%"}, {"measurement": "% of activity remaining", "setting": "[25]", "value": 40, "unit": "%"}]}]}
